Data taken from ChEMBL document CHEMBL1800013, “Small molecule inhibitors of SHP2 tyrosine phosphatase discovered by virtual screening” (Bioorg Med Chem Lett, 2011).
Active and inactive are the calls of the source. The rule behind the calls is not given here.

How the values were obtained:
[1] = biological target: T1, Tyrosine-protein phosphatase non-receptor type 11 (Homo sapiens) (UniProt Q06124); assay: Inhibition of SHP2 catalytic domain assessed as inhibition of pNPP to p-nitrophenol conversion at 50 uM after 5 mins by spectrophotometry
T1 sequence (whole entry): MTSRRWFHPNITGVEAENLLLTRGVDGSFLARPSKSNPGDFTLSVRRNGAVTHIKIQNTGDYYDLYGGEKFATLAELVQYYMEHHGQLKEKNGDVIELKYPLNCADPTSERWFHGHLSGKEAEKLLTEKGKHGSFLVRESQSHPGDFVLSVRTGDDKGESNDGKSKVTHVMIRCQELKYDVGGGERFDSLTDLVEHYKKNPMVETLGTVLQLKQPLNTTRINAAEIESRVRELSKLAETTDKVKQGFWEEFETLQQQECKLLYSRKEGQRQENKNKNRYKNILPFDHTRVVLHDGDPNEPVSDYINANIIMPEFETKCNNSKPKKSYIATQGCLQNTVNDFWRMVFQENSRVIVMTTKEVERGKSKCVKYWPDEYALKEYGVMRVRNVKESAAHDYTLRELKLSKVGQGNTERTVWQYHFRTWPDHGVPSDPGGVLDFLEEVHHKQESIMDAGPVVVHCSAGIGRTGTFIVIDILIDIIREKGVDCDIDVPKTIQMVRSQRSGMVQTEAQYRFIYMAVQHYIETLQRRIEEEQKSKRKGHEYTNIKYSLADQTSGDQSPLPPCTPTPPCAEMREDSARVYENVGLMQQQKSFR

[2] = biological target: T2, Tyrosine-protein phosphatase non-receptor type 11 (Homo sapiens, UniProt Q06124); assay: Inhibition of SHP2 catalytic domain assessed as inhibition of pNPP to p-nitrophenol conversion after 5 mins by spectrophotometry
T2 sequence (Q06124 whole entry): T1 sequence (whole entry)

[3] = biological target: Tyrosine-protein phosphatase non-receptor type 6 (Homo sapiens, UniProt P29350); assay: Inhibition of SHP1
Chain of Tyrosine-protein phosphatase non-receptor type 6 (P29350 whole entry): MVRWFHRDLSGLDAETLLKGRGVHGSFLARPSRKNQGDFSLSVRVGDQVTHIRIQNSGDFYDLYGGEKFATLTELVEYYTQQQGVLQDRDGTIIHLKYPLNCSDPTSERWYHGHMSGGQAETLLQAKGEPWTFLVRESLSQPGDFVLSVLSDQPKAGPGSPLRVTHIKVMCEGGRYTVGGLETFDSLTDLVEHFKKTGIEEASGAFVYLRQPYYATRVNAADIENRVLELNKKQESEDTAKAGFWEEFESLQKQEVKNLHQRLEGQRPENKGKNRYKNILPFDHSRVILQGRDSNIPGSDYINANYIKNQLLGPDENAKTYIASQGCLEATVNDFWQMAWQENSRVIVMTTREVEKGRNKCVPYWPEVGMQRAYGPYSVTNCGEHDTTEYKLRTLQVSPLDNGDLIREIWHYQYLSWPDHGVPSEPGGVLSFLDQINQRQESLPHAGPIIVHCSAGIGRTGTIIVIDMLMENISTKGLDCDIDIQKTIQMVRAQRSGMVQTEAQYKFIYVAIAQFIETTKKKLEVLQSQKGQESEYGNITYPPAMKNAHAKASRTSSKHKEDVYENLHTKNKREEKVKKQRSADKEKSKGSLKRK

[4] = biological target: T3, Tyrosine-protein phosphatase non-receptor type 1 (Homo sapiens, UniProt P18031); assay: Inhibition of PTP1B
T3 sequence (P18031 whole entry): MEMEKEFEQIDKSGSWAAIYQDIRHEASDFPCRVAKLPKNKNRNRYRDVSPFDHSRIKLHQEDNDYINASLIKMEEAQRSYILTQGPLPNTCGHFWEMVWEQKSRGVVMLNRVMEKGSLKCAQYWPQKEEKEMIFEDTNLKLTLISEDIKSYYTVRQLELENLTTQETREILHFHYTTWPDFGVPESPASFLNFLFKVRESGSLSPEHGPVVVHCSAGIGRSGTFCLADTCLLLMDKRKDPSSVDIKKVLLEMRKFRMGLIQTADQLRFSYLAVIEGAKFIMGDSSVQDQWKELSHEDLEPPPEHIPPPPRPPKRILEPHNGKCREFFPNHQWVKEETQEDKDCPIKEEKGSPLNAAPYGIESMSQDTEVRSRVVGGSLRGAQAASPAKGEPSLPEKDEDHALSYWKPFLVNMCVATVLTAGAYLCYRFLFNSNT

[5] = biological target: T1, Tyrosine-protein phosphatase non-receptor type 11 (Homo sapiens); assay: Inhibition of SHP2 catalytic domain assessed as inhibition of pNPP to p-nitrophenol conversion at 1000 uM after 5 mins by spectrophotometry

Row | SMILES | inhibition [1] [%] | other results
1 | O=C(O)Cc1c(C(=O)O)[nH]c2ccc(C(=O)O)cc12 | 1 | 
2 | O=C(O)c1cccc(NS(=O)(=O)c2ccc3c4c(cccc24)C(=O)N3)c1 | 4.5 | 
3 | O=C(CC(Cc1ccccc1)C(=O)O)Nc1ccc([N+](=O)[O-])cc1 (centres undefined) | 1 | 
4 | O=C(O)c1ccccc1NS(=O)(=O)c1cccc2nsnc12 | 0 | 
5 | O=C(O)c1ccc(CNS(=O)(=O)c2ccc(C(=O)O)cc2)cc1 | 40.5 | 
6 | O=C(O)Cc1ccc2[nH]c3ccc(CC(=O)O)cc3c2c1 | 52.5 | 
7 | CC(=O)Nc1ccc(OS(=O)(=O)c2cccc(C(=O)O)c2)cc1 | 3.5 | 
8 | Cc1cc(C(=O)O)ccc1NC(=O)C1CC=CCC1C(=O)O (centres undefined) | 13 | 
9 | COc1ccc(/C=C2\C(=O)N(c3ccc(C(=O)O)cc3)N=C2C)cc1[N+](=O)[O-] | 41 | 
10 | Cc1cc(S(=O)(=O)O)ccc1N1N=C(C(=O)O)CC1=O |  | IC50 [2]: 41 µM
11 | COc1cc(/C=C2\SC(=S)N(C(CC(=O)O)C(=O)O)C2=O)ccc1O (centres undefined) | 69.5 | 
12 | Cc1ccc(/C=C/C(=O)O)cc1S(=O)(=O)Nc1ccc(C(=O)O)cc1 | 28 | 
13 | O=C(O)c1ccccc1NS(=O)(=O)c1cccc(C(=O)N2CCCc3ccccc32)c1 | 47 | 
14 | CS(=O)(=O)N(CC(=O)Nc1ccccc1C(=O)O)c1ccc(F)cc1 | 24 | 
15 | O=C(O)c1ccccc1NC(=O)c1ccccc1-c1ccccc1C(=O)O | 38 | 
16 | O=C(O)c1ccc(C2(c3ccc(C(=O)O)cc3)OC(=O)c3ccccc32)cc1 | 1.5 | 
17 | COc1ccc(C2Nc3ccc(C(=O)O)cc3C3C=CCC32)cc1[N+](=O)[O-] (centres undefined) | 1.5 | 
18 | O=C(O)c1cc(S(=O)(=O)Nc2ccccc2C(=O)O)ccc1Br | 4.5 | 
19 | O=C(O)c1ccc(NC(=O)C2CC=CCC2C(=O)O)cc1O (centres undefined) | 4.5 | 

Row | SMILES | inhibition [1] [%] | other results
20 | O=C(O)c1ccc(/N=N/c2c(O)c(C(=O)O)cc3ccccc23)cc1 | 8.5 | 
21 | O=C(O)c1cccc(NS(=O)(=O)c2ccc(Cl)c(C(=O)O)c2)c1 | 7 | 
22 | CC(=O)c1c(C)oc2ccc(NS(=O)(=O)c3cccc(C(=O)O)c3)cc12 | 71.5 | IC50 [3]: 85 µM; IC50 [4]: 38 µM; IC50 [2]: 176 µM
23 | O=C(O)/C=C/c1cccc(NS(=O)(=O)c2ccc(C(=O)O)cc2)c1 | 5.5 | 
24 | O=C(O)c1cc(N/C(=N\S(=O)(=O)c2ccccc2)c2ccccc2)ccc1O | 12.5 | 
25 | Cc1ccc(C(=O)O)cc1NC(=O)[C@H]1CC=CC[C@@H]1C(=O)O | 6 | 
26 | O=C(O)c1ccc(NCc2ccccc2)c(NC(=O)C2CC=CCC2C(=O)O)c1 (centres undefined) | 43 | 
27 | O=C(O)c1ccc(NS(=O)(=O)c2cccc(C(=O)Nc3cccc(C(=O)O)c3)c2)cc1 | 44 | 
28 | O=[N+]([O-])c1ccc(/C=N/Nc2ccc(S(=O)(=O)O)cc2)cc1 | 91.5 | 
29 | CC1=NN(c2ccc(S(=O)(=O)O)cc2C)C(=O)C1 |  | inhibition [5]: inactive
30 | O=C(O)C1=NN(c2ccccc2)C(=O)C1 |  | inhibition [5]: inactive
31 | Cc1ccccc1NS(=O)(=O)c1cccc(C(=O)Nc2ccccc2C(=O)O)c1 | 50.5 | 
32 | O=C(O)c1cccc(N/C(=N\S(=O)(=O)c2ccc(Cl)cc2)c2ccccc2)c1 | 10.5 | 
33 | O=C(O)C1=NN(c2ccc(S(=O)(=O)O)cc2)C(=O)C1 |  | IC50 [2]: 155 µM
34 | O=C(O)c1ccc(NS(=O)(=O)c2cc(C(=O)O)ccc2Br)cc1 | 34.5 | 
35 | O=C(O)c1cccc(-c2ccc(/C=C/[N+](=O)[O-])o2)c1 | 95 | 
36 | CCOc1cc(/C=N/Nc2ccc(S(=O)(=O)O)cc2)ccc1O | 51 | 
37 | CC1CCN(S(=O)(=O)c2ccc3[nH]cc(C(=O)O)c(=O)c3c2)CC1 | 0.5 | 
38 | CC(=O)N(c1ccc2oc3c(c2c1)CCCC3)S(=O)(=O)c1ccc(C(=O)O)cc1 | 74.5 | IC50 [3]: 160 µM; IC50 [4]: 120 µM; IC50 [2]: 181 µM
